Source: patent US9359358B2, “Cyclohexyl azetidine derivatives as JAK inhibitors” (Incyte Holdings Corporation, priority 2011, dated 2016)
Structures can show the parent of a compound that is named as a salt.

Experiments:
[1] = target: T1, human JAK1 (Homo sapiens, UniProt P23458); assay: In Vitro JAK Kinase Assay (HTRF, phosphorylation of a biotinylated peptide), JAK1; format: biochemical; details: Table 4; catalytic domain a.a. 837-1142, assay of Example A
T1 construct: human JAK1 (a.a. 837-1142); His tag (N); made in house; host or cells: insect cells (baculovirus)
Experimental: (§1) The catalytic activity of JAK1, JAK2 or JAK3 was assayed by measuring the phosphorylation of a biotinylated peptide. The phosphorylated peptide was detected by homogenous time resolved fluorescence (HTRF). […] Reactions were carried out at room temperature for 1 hour and then stopped with 20 μL 45 mM EDTA, 300 nM SA-APC, 6 nM Eu-Py20 in assay buffer (Perkin Elmer, Boston, Mass.). Binding to the Europium labeled antibody took place for 40 minutes and HTRF signal was measured on a Fusion plate reader (Perkin Elmer, Boston, Mass.).

[2] = target: T2, human JAK2 (Homo sapiens, UniProt O60674); assay: In Vitro JAK Kinase Assay (HTRF, phosphorylation of a biotinylated peptide), JAK2; format: biochemical; details: Table 4; assay of Example A
T2 construct: JAK2 (a.a. 828-1132); His tag (N); made in house; host or cells: insect cells (baculovirus)
Experimental: as §1

T2 sequence (O60674 828-1132): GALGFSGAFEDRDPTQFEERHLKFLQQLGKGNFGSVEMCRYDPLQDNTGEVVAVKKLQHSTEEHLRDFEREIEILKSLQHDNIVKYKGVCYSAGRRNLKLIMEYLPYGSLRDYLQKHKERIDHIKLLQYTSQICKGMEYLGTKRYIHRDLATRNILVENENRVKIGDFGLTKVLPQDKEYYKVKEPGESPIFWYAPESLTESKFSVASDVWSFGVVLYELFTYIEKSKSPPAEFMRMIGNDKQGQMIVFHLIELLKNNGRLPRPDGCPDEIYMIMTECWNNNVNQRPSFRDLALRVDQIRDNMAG
T1 sequence (P23458 849-1154): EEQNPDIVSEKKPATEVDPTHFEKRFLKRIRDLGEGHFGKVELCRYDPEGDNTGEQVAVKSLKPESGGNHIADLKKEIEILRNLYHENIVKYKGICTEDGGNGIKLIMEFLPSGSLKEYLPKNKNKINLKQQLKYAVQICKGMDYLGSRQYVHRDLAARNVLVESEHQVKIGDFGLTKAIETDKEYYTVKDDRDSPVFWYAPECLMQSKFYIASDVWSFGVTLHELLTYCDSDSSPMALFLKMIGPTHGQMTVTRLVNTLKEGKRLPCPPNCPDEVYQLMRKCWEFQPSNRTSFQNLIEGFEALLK

Row | SMILES | IC50 [1] | JAK2/JAK1 IC50 ratio [2]
1 | CC(C)NCc1cc(O[C@H]2CC[C@@H](N3CC(CC#N)(n4cc(-c5ncnc6[nH]ccc56)cn4)C3)CC2)nc(C(F)(F)F)n1.O=C(O)C(F)(F)F.O=C(O)C(F)(F)F.O=C(O)C(F)(F)F [Example 6, {1-(cis-4-{[6-[(isopropylamino)methyl]-2-(trifluoromethyl)pyrimidin-4-yl]oxy}cyclohexyl)-3-[4-(7H-pyrrolo[2,3-d]pyrimidin-4-yl)-1H-pyrazol-1-yl]azetidin-3-yl}acetonitrile tris(trifluoroacetate)] | < 10 nM | ≧10
2 | N#CCC1(n2cc(-c3ncnc4[nH]ccc34)cn2)CN([C@H]2CC[C@@H](Oc3cc(CNC4CC4)nc(C(F)(F)F)n3)CC2)C1.O=C(O)C(F)(F)F.O=C(O)C(F)(F)F.O=C(O)C(F)(F)F [Example 7, {1-(cis-4-{[6-[(cyclopropylamino)methyl]-2-(trifluoromethyl)pyrimidin-4-yl]oxy}cyclohexyl)-3-[4-(7H-pyrrolo[2,3-d]pyrimidin-4-yl)-1H-pyrazol-1-yl]azetidin-3-yl}acetonitrile tris(trifluoroacetate)] | < 10 nM | ≧10
3 | CCN(C)Cc1cc(O[C@H]2CC[C@@H](N3CC(CC#N)(n4cc(-c5ncnc6[nH]ccc56)cn4)C3)CC2)nc(C(F)(F)F)n1.O=C(O)C(F)(F)F.O=C(O)C(F)(F)F.O=C(O)C(F)(F)F [Example 8, {1-(cis-4-{[6-{[ethyl(methyl)amino]methyl}-2-(trifluoromethyl)pyrimidin-4-yl]oxy}cyclohexyl)-3-[4-(7H-pyrrolo[2,3-d]pyrimidin-4-yl)-1H-pyrazol-1-yl]azetidin-3-yl}acetonitrile tris(trifluoroacetate)] | < 10 nM | ≧10
4 | N#CCC1(n2cc(-c3ncnc4[nH]ccc34)cn2)CN([C@H]2CC[C@@H](Oc3cc(CNCC4CC4)nc(C(F)(F)F)n3)CC2)C1.O=C(O)C(F)(F)F.O=C(O)C(F)(F)F.O=C(O)C(F)(F)F [Example 9, {1-(cis-4-{[6-{[(cyclopropylmethyl)amino]methyl}-2-(trifluoromethyl)pyrimidin-4-yl]oxy}cyclohexyl)-3-[4-(7H-pyrrolo[2,3-d]pyrimidin-4-yl)-1H-pyrazol-1-yl]azetidin-3-yl}acetonitrile tris(trifluoroacetate)] | < 10 nM | ≧10
5 | N#CCC1(n2cc(-c3ncnc4[nH]ccc34)cn2)CN([C@H]2CC[C@@H](Oc3cc(CNC4CCC4)nc(C(F)(F)F)n3)CC2)C1.O=C(O)C(F)(F)F.O=C(O)C(F)(F)F.O=C(O)C(F)(F)F [Example 10, {1-(cis-4-{[6-[(cyclobutylamino)methyl]-2-(trifluoromethyl)pyrimidin-4-yl]oxy}cyclohexyl)-3-[4-(7H-pyrrolo[2,3-d]pyrimidin-4-yl)-1H-pyrazol-1-yl]azetidin-3-yl}acetonitrile tris(trifluoroacetate)] | < 10 nM | ≧10
6 | CN(CCO)Cc1cc(O[C@H]2CC[C@@H](N3CC(CC#N)(n4cc(-c5ncnc6[nH]ccc56)cn4)C3)CC2)nc(C(F)(F)F)n1 [Example 12, {1-(cis-4-{[6-{[(2-hydroxyethyl)(methyl)amino]methyl}-2-(trifluoromethyl)pyrimidin-4-yl]oxy}cyclohexyl)-3-[4-(7H-pyrrolo[2,3-d]pyrimidin-4-yl)-1H-pyrazol-1-yl]azetidin-3-yl}acetonitrile tris(trifluoroacetate) (salt)] | < 10 nM | ≧10
7 | CCN(CCO)Cc1cc(O[C@H]2CC[C@@H](N3CC(CC#N)(n4cc(-c5ncnc6[nH]ccc56)cn4)C3)CC2)nc(C(F)(F)F)n1 [Example 13, {1-(cis-4-{[6-{[ethyl(2-hydroxyethyl)amino]methyl}-2-(trifluoromethyl)pyrimidin-4-yl]oxy}cyclohexyl)-3-[4-(7H-pyrrolo[2,3-d]pyrimidin-4-yl)-1H-pyrazol-1-yl]azetidin-3-yl}acetonitrile tris(trifluoroacetate) (salt)] | < 10 nM | ≧10
8 | N#CCC1(n2cc(-c3ncnc4[nH]ccc34)cn2)CN([C@H]2CC[C@@H](Oc3cc(CNCC(F)(F)F)nc(C(F)(F)F)n3)CC2)C1.O=C(O)C(F)(F)F.O=C(O)C(F)(F)F.O=C(O)C(F)(F)F [Example 14, [3-[4-(7H-pyrrolo[2,3-d]pyrimidin-4-yl)-1H-pyrazol-1-yl]-1-(cis-4-{[6-{[(2,2,2-trifluoroethyl)amino]methyl}-2-(trifluoromethyl)pyrimidin-4-yl]oxy}cyclohexyl)azetidin-3-yl]acetonitrile tris(trifluoroacetate)] | < 10 nM | ≧10
9 | N#CCC1(n2cc(-c3ncnc4[nH]ccc34)cn2)CN([C@H]2CC[C@@H](Oc3cc(CNCCF)nc(C(F)(F)F)n3)CC2)C1.O=C(O)C(F)(F)F.O=C(O)C(F)(F)F.O=C(O)C(F)(F)F [Example 15, {1-(cis-4-{[6-{[(2-fluoroethyl)amino]methyl}-2-(trifluoromethyl)pyrimidin-4-yl]oxy}cyclohexyl)-3-[4-(7H-pyrrolo[2,3-d]pyrimidin-4-yl)-1H-pyrazol-1-yl]azetidin-3-yl}acetonitrile tris(trifluoroacetate)] | < 10 nM | ≧10
10 | C[C@@H](CO)NCc1cc(O[C@H]2CC[C@@H](N3CC(CC#N)(n4cc(-c5ncnc6[nH]ccc56)cn4)C3)CC2)nc(C(F)(F)F)n1 [Example 16, {1-(cis-4-{[6-({[(1S)-2-hydroxy-1-methylethyl]amino}methyl)-2-(trifluoromethyl)pyrimidin-4-yl]oxy}cyclohexyl)-3-[4-(7H-pyrrolo[2,3-d]pyrimidin-4-yl)-1H-pyrazol-1-yl]azetidin-3-yl}acetonitrile Ex 1 tris(trifluoroacetate) (salt)] | < 10 nM | ≧10
11 | C[C@H](CO)NCc1cc(O[C@H]2CC[C@@H](N3CC(CC#N)(n4cc(-c5ncnc6[nH]ccc56)cn4)C3)CC2)nc(C(F)(F)F)n1 [Example 17, {1-(cis-4-{[6-({[(1R)-2-hydroxy-1-methylethyl]amino}methyl)-2-(trifluoromethyl)pyrimidin-4-yl]oxy}cyclohexyl)-3-[4-(7H-pyrrolo[2,3-d]pyrimidin-4-yl)-1H-pyrazol-1-yl]azetidin-3-yl}acetonitrile tris(trifluoroacetate) (salt)] | < 10 nM | ≧10

Further lines, results first:

Row | IC50 [1] | JAK2/JAK1 IC50 ratio [2] | SMILES
12 | < 10 nM | ≧10 | CCNCc1cc(O[C@H]2CC[C@@H](N3CC(CC#N)(n4cc(-c5ncnc6[nH]ccc56)cn4)C3)CC2)nc(C(F)(F)F)n1 [Example 5, {1-(cis-4-{[6-[(Ethylamino)methyl]-2-(trifluoromethyl)pyrimidin-4-yl]oxy}cyclohexyl)-3-[4-(7H-pyrrolo[2,3-d]pyrimidin-4-yl)-1H-pyrazol-1-yl]azetidin-3-yl}acetonitrile tris(trifluoroacetate)]
13 | < 10 nM | ≧10 | N#CCC1(n2cc(-c3ncnc4[nH]ccc34)cn2)CN([C@H]2CC[C@@H](Oc3cc(CNCCO)nc(C(F)(F)F)n3)CC2)C1 [Example 11, {1-(cis-4-{[6-{[(2-hydroxyethyl)amino]methyl}-2-(trifluoromethyl)pyrimidin-4-yl]oxy}cyclohexyl)-3-[4-(7H-pyrrolo[2,3-d]pyrimidin-4-yl)-1H-pyrazol-1-yl]azetidin-3-yl}acetonitrile tris(trifluoroacetate) (salt)]
14 | < 10 nM | ≧10 | C[C@@H](O)CNCc1cc(O[C@H]2CC[C@@H](N3CC(CC#N)(n4cc(-c5ncnc6[nH]ccc56)cn4)C3)CC2)nc(C(F)(F)F)n1 [Example 18, {1-(cis-4-{[6-({[(2S)-2-hydroxypropyl]amino}methyl)-2-(trifluoromethyl)pyrimidin-4-yl]oxy}cyclohexyl)-3-[4-(7H-pyrrolo[2,3-d]pyrimidin-4-yl)-1H-pyrazol-1-yl]azetidin-3-yl}acetonitrile tris(trifluoroacetate) (salt)]
15 | < 10 nM | ≧10 | C[C@H](O)CNCc1cc(O[C@H]2CC[C@@H](N3CC(CC#N)(n4cc(-c5ncnc6[nH]ccc56)cn4)C3)CC2)nc(C(F)(F)F)n1 [Example 19, {1-(cis-4-{[6-({[(2R)-2-hydroxypropyl]amino}methyl)-2-(trifluoromethyl)pyrimidin-4-yl]oxy}cyclohexyl)-3-[4-(7H-pyrrolo[2,3-d]pyrimidin-4-yl)-1H-pyrazol-1-yl]azetidin-3-yl}acetonitrile tris(trifluoroacetate) (salt)]
16 | < 10 nM | ≧10 | CC(C)(O)CNCc1cc(O[C@H]2CC[C@@H](N3CC(CC#N)(n4cc(-c5ncnc6[nH]ccc56)cn4)C3)CC2)nc(C(F)(F)F)n1 [Example 20, {1-(cis-4-{[6-{[(2-hydroxy-2-methylpropyl)amino]methyl}-2-(trifluoromethyl)pyrimidin-4-yl]oxy}cyclohexyl)-3-[4-(7H-pyrrolo[2,3-d]pyrimidin-4-yl)-1H-pyrazol-1-yl]azetidin-3-yl}acetonitrile tris(trifluoroacetate) (salt)]
17 | < 10 nM | ≧10 | N#CCC1(n2cc(-c3ncnc4[nH]ccc34)cn2)CN([C@H]2CC[C@@H](Oc3cc(CNCCCO)nc(C(F)(F)F)n3)CC2)C1 [Example 21, {1-(cis-4-{[6-{[(3-hydroxypropyl)amino]methyl}-2-(trifluoromethyl)pyrimidin-4-yl]oxy}cyclohexyl)-3-[4-(7H-pyrrolo[2,3-d]pyrimidin-4-yl)-1H-pyrazol-1-yl]azetidin-3-yl}acetonitrile tris(trifluoroacetate) (salt)]
